The values that follow are results of earlier work, collected in patent publication US9616098B2, “Formulations of vancomycin” (SCIDOSE, LLC, priority 2013, dated 2017).

Regarding `CN[C@H](CC(C)C)C(=O)N[C@H]1C(=O)N[C@@H](CC(N)=O)C(=O)N[C@H]2C(=O)N[C@H]3C(=O)N[C@H](C(=O)N[C@H](C(=O)O)c4cc(O)cc(O)c4-c4cc3ccc4O)[C@H](O)c3ccc(c(Cl)c3)Oc3cc2cc(c3O[C@@H]2O[C@H](CO)[C@@H](O)[C@H](O)[C@H]2O[C@H]2C[C@](C)(N)[C@H](O)[C@H](C)O2)Oc2ccc(cc2Cl)[C@H]1O` [Vancomycin], the “stable in water after reconstitution” value is given as “approximately 24 hours”.
